Values joined by “and” are separate entries in the source; they are usually repeats but may differ in a detail not shown here. Equal values may be shown once.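 Step 1: Grow cells in 96-well plates. Step 2: Expose to compound for 48 hours at 5 concentrations. Step 3: Interpolate endpoints linearly; if unreached, use highest concentration. GI50: concentration for 50% inhibition of growth. TGI: concentration producing complete growth inhibition.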
Assays:
Assay in all cases: NCI tumour cell line growth inhibition, 48 h
[1] = tested on: EKVX NSCLC
[2] = tested on: MALME-3M melanoma
[3] = tested on: NCI-H522 lung
[4] = tested on: SK-MEL-28 melanoma
[5] = tested on: SN12C renal
[6] = tested on: TK-10 renal
[7] = tested on: NCI-H226 lung
[8] = tested on: T-47D breast
[9] = tested on: NCI/ADR-RES ovarian
[10] = tested on: SR leukemia

Row | SMILES | TGI [1] [µM] | TGI [2] | TGI [3] | TGI [4] | TGI [5] [µM] | TGI [6] [µM] | TGI [7] | GI50 [1] [µM] | TGI [8] [µM] | GI50 [6] [µM] | TGI [9] [µM] | GI50 [2] [µM] | GI50 [7] [µM] | GI50 [3] [µM] | GI50 [9] [µM] | GI50 [4] [µM] | GI50 [8] [µM] | GI50 [5] [µM] | TGI [10] [µM]
1 | CC1=N/C(=C/c2ccc3c(c2)OCO3)C(=O)O1 | > 100 | > 100 µM | > 100 µM | > 100 µM | > 100 | > 100 | – | – | – | – | – | – | – | – | – | – | – | – | –
2 | CC(=O)Nc1ccc(/C=C/C(=O)c2sc(-c3cccnc3)nc2C)cc1 | > 100 | > 100 µM | > 100 µM | > 100 µM | > 100 | > 100 | > 100 µM | – | – | – | – | – | – | – | – | – | – | – | –
3 | COC(=O)[C@@H]1c2cc3c(c(O)c2[C@@H](OC2OC(C)C(OC)C(C)(OC)C2OC)C[C@]1(C)O)C(=O)c1c(O)cc2c(c1C3=O)O[C@H]1O[C@]2(C)[C@H](O)[C@@H](N(C)C)[C@@H]1O (some centres not stated) | – | 0.0666 µM and 0.0545 µM | 0.0638 µM and 0.0131 µM | 0.0699 µM and 0.0273 µM | 2 | – | 0.0718 µM and 0.0966 µM | 0.103 | 0.889 | 0.0386 | – | – | – | – | – | – | – | – | –
4 | N#C/C(=C\c1cc(O)cc(O)c1)C(N)=O | > 100 | > 100 µM | 66.2 µM | > 100 µM | > 100 | > 100 | > 100 µM | – | – | – | – | – | – | – | – | – | – | – | –
5 | C=CCC1(CN(C)C)CC/C(=C\c2ccc(OC)cc2)C1=O (configuration not stated) | > 100 | > 100 µM | 81.9 µM | > 100 µM | > 100 | > 100 | > 100 µM | – | – | – | – | – | – | – | – | – | – | – | –
6 | CCOC(=O)Cc1c(C)c2cc(C(=O)c3ccccc3)c(O)cc2oc1=O | 88.9 | 62.1 µM | 68.7 µM | > 100 µM | > 100 | > 100 | > 100 µM | – | 88.3 | – | 73.3 | – | – | – | – | – | – | – | –
7 | COc1cc(/C=C2\CC3C4CC=C5C[C@@H](OC(C)=O)CC[C@]5(C)C4CC[C@]3(C)C2=O)ccc1OCCN1CCCCC1 (some centres not stated) | 27.4 | 3.35 µM | 25.7 µM | > 100 µM | – | 12.3 | 28.6 µM | 13.7 | 13.1 | 3.4 | 6.89 | 1.66 | 11.8 | 7.28 | 3.56 | 3.24 | 2.98 | – | –
8 | O=C(CN(/C=C/C(=O)C(F)(F)F)c1ccc(Cl)cc1)c1ccc(Cl)cc1 | 28.7 | 50.8 µM | 5.93 µM | 39.5 µM | 24.2 | 19.3 | 29.4 µM | 14.3 | 38.3 | 4.78 | 37 | 15.5 | 14.8 | 2.1 | 9.07 | 16.6 | 5.88 | 11.9 | –
9 | Nc1nc(/C=C\c2ccc([N+](=O)[O-])s2)nc(N2CCN(c3ccccc3)CC2)n1 | > 100 | 59.8 µM | 31.5 µM | 47.1 µM | 34.5 | > 100 | 36.4 µM | 32.2 | 43.2 | 72.1 | 53 | 24.9 | 15.2 | 16 | 21.3 | 24.9 | 14.2 | 14.3 | –
10 | COC1CCC(OS(C)(=O)=O)C(CO)O1 (configuration not stated) | > 100 | > 100 µM | > 100 µM | > 100 µM | > 100 | > 100 | – | – | – | – | – | – | – | – | – | – | – | – | > 100
11 | CC1(C)OC2C(CCP(=O)(O)O)OC(c3nc(C(N)=O)cs3)C2O1 (configuration not stated) | > 100 | > 100 µM | > 100 µM | > 100 µM | > 100 | > 100 | > 100 µM | – | – | – | – | – | – | – | – | – | – | – | –
12 | CSc1ccc2c(cc1=O)[C@@H](NC(=O)c1cccc([N+](=O)[O-])c1)CCc1cc(O)c(O)c(O)c1-2 | > 100 | > 100 µM | 68.2 µM | > 100 µM | 88.9 | > 100 | 57.9 µM | – | – | – | – | – | – | – | – | – | – | – | –
13 | Clc1c(Cl)[n+](Cc2ccc3ccccc3c2)cn1Cc1ccc2ccccc2c1 | 4.98 | 3.15 µM | 2.67 µM | 3.04 µM | 2.99 | 3.11 | – | 1.83 | 2.09 | 1.58 | 38 | 1.4 | – | 1.12 | 16.3 | 1.63 | 0.504 | 1.53 | –
14 | NC(=O)NNC(=O)CCn1[nH]c(=O)c(Cl)c(Cl)c1=O | > 100 | > 100 µM | > 100 µM | > 100 µM | > 100 | > 100 | > 100 µM | – | – | – | – | – | – | – | – | – | – | – | –
15 | COc1c/c(=C2\C=c3ccccc3=N2)[nH]/c1=C\c1[nH]c(C)cc1C | > 94.4 | – | > 41.9 µM | 26.3 µM | 59.5 | 36.7 | > 100 µM | 0.601 | 6.05 | 0.106 | > 55.3 | 0.0328 | 16.5 | 0.493 | 0.17 | 0.103 | < 0.0211 | 0.0782 | –

— PubChem BioAssay (NCI)
